Experimental data reported in PMC6892255, “Identification of a potent small-molecule inhibitor of bacterial DNA repair that potentiates quinolone antibiotic activity in methicillin-resistant Staphylococcus aureus^” (Bioorganic & Medicinal Chemistry, 2019).
Entries after “also recorded” stand apart in the source; their conditions may differ.

Key:
E. coli topoisomerase IV = molecular target: T1, E. coli topoisomerase IV (Escherichia coli, UniProt P0AFI2+P20083); assay: Topoisomerase IV supercoiling relaxation assay (pQE80L); type: biochemical; conditions: at 12.5 µM (compounds)
T1 construct: purchased Inspiralis
T1 sequence (P0AFI2 whole entry): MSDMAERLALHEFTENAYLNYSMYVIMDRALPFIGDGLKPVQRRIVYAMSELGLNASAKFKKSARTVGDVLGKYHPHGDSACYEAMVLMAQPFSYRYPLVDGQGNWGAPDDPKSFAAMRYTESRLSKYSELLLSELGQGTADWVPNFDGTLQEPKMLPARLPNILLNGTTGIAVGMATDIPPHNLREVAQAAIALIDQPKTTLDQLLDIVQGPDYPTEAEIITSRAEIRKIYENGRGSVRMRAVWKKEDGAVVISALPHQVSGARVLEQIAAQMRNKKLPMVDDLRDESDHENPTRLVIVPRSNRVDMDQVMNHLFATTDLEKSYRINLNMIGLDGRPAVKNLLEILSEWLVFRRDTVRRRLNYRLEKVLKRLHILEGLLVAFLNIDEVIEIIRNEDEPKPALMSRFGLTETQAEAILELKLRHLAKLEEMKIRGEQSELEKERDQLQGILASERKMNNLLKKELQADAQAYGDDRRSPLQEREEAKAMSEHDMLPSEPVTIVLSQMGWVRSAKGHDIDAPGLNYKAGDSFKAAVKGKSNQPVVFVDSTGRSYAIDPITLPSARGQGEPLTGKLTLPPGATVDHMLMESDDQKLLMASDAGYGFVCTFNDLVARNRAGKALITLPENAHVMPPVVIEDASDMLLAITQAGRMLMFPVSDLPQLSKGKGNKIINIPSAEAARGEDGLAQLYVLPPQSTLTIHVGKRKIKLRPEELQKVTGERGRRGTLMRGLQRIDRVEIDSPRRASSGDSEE
T1 sequence (P20083 whole entry): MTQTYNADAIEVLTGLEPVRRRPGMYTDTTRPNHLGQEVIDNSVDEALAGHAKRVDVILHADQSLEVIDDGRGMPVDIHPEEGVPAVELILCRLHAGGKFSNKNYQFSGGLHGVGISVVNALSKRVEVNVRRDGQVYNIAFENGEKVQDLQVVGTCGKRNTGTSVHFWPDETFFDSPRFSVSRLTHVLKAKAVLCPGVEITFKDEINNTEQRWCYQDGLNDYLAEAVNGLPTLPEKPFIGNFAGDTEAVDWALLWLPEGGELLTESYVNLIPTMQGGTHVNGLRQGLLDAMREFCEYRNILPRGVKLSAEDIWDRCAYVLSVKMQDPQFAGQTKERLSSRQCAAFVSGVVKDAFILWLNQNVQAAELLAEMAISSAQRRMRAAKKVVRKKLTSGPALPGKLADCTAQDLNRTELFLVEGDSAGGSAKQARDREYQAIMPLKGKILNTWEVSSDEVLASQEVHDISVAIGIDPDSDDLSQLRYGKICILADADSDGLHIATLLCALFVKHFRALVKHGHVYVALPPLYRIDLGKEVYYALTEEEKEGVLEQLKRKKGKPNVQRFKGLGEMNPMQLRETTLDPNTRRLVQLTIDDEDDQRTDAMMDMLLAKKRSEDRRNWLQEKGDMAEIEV
Description: 2.1. Biological and biochemical methods […]
E. coli DNA gyrase supercoiling assay (Inspiralis) was performed according to the manufacturer’s instructions, ensuring a constant concentration of 1% (v/v) DMSO. Samples were separated on a 1% (w/v) agarose gel prepared with Tris/Borate/EDTA (TBE) buffer (1 M Tris-borate, 20 mM EDTA, pH 8.0). Electrophoresis was performed at 100 V until the bromophenol blue dye had run >6 cm to ensure resolution of relaxed and supercoiled DNA.
The gel was stained with SYBR Safe DNA gel stain (Invitrogen, 1:10,000 dilution in TBE) for 30 min, and visualized on a Syngene Gel Doc system. Band intensity was quantified using ImageJ software and the fraction of supercoiled plasmid was determined as the ratio of the density of the supercoiled band to the total density. Values were background corrected against the no-gyrase control and normalized to DMSO control for dose-response analysis.
E. coli topoisomerase IV supercoiling relaxation assay (Inspiralis) was performed according to the manufacturer’s instructions, ensuring a constant concentration of 1% (v/v) DMSO.
Supercoiled pQE80L was prepared via plasmid purification and used as the substrate for the reaction. Reactions were analyzed as described for DNA gyrase assays. […]

MRSA (USA300 JE2) = assay: Growth inhibition in the presence of H2O2; type: cell-based, Staphylococcus aureus
Description: The analogue panel was further tested for potentiation of alternative DNA-damaging agents Mitomycin-C (MMC) and hydrogen peroxide (Table S2), which function via alkylation and oxidization DNA bases, respectively.
(§1) 2.1. Biological and biochemical methods
(§2) Bacterial strains and culture conditions
(§3) Strains utilized in the present study are detailed in Table S1. All strains used were cultivated on Mueller Hinton Agar (MHA) and grown to stationary-phase in Mueller Hinton Broth (MHB) at 37 °C for 16 h, with shaking at 180 r.p.m.
(§4) Minimum inhibitory concentration (MIC) assays
(§5) MIC assays were performed in 96 well plates and MICs were determined in accordance with the broth microdilution protocol.4 Strains grown to stationary-phase in MHB were adjusted to 5 x 10^5 colony-forming units (CFU)/mL in fresh MHB (100 µL/well) supplemented with DMSO to ensure a constant concentration of 0.5% (v/v) DMSO across all experiments. Where […]
(§6) or H2O2 (200 μM). Test compounds were prepared as two-fold serial dilutions. Cells were […]
(§7) as the lowest concentration with no visible bacterial growth, and the optical density at 600 nm (OD600) was recorded. OD600 measurements were background corrected against no-inocula control and normalized to DMSO control for dose-response analysis. The EC50 value mean and SEM were calculated from individual EC50 values from three biological replicates. […]

E. coli K-12 BW25113 = assay: MIC / growth inhibition assay (end-point OD600), single agent; type: cell-based, Escherichia coli; conditions: Escherichia coli, BW25113, end-point OD600 after 18 h, read-out: EC50 E. coli (K12 BW25113) Compound only
From the text: Minimum inhibitory concentration (MIC) assays were used to evaluate the antimicrobial activity of compounds against Gram-negative (E. coli) and Gram-positive (S. aureus) bacteria. […] Gram-positive bacteria are more susceptible to small-molecule penetration, and compounds were therefore assessed for growth inhibition against the S. aureus SH1000 strain.
as §1, §2, §3, §4, §5, §6, §7

[1] = system: SOS response in JE2 cells; assay: SOS reporter assay (GFP under control of the recA promoter); type: cell-based, Staphylococcus aureus; conditions: for SOS response (normalized GFP fluorescence/cell): JE2 recA-GFP reporter, SOS activated with CFX (10 µM), titration of compound
From the text: A SOS reporter system was generated by transformation of JE2 cells with a plasmid containing GFP under control of the recA promoter. Activation of the SOS response in these cells results in expression of GFP which can be monitored by fluorescence intensity. […] IMP-1700 (10) was coupled with N-Boc-ethylenediamine to afford amide 19, followed by removal of the Boc group in 4 M HCl/dioxane and purification using strong cation exchange resin. The resulting free amine 20 was coupled to N-hydroxysuccinimide (NHS)-activated Sepharose resin at 4 °C overnight (Figure 2C), and the remaining NHS sites quenched in Tris buffer. SoluBL21 competent E. coli were transformed with pET28b^+ containing StrepII-tagged AddA and hexahistidine-tagged AddB, and expression induced overnight at 16 °C. […] Beads were washed three times with lysis buffer and bound protein eluted with SDS-PAGE sample buffer, followed by PAGE separation. […]
JE2 transformed with SOS-inducible pCN34 PrecA-gfp reporter plasmid expressing GFP under the control of the recA promoter were grown to late stationary phase at 37 °C in MHB containing kanamycin (90 μg/mL). Stationary phase JE2 culture (1 mL) was centrifuged (17,000 × g, 2 min), the supernatant removed and cells resuspended in assay media (12.5 µM […]
concentration was maintained >12.5 µM and DMSO concentration maintained at 1.5% (v/v).
JE2 culture (20 uL) was added to inhibitor solutions (180 µL) to a final cell density of 4 x 10^7 CFU/mL and samples incubated in a M200-PRO microplate reader (Tecan) at 37 °C with 700 rpm agitation for 17 h. GFP fluorescence intensity and OD600 were measured at 15 min intervals. Measurements were background corrected against no-inocula control and normalized to no-test inhibitor control at mid-exponential growth phase (4.5 h) for dose-response analysis. […]

JE2 = assay: Synergy experiments with CFX (growth rate method, Chou-Talalay, CompuSyn); type: cell-based, Staphylococcus aureus
Description: A more precise method to determine EC50 values for individual compounds and combinations was used to increase accuracy for CI calculations. […]
Synergy experiments were performed as described for MIC assays. Two-fold serial dilutions […]
carried out at 37 °C, with shaking at 220 r.p.m. OD600 was recorded every 30 min over a 17 h period. Measurements were background corrected against the no-inocula control before a growth curve of OD600 against time was constructed. The gradient of the exponential phase was obtained by linear regression. Gradients were normalized against the smallest and largest value within the respective data set prior to analysis with the CompuSyn software (http://www.combosyn.com/) to calculate combination index (CI) and dose-reduction index (DRI) values for each drug combination. […]

O=C(O)c1cn(C2CC2)c2cc(N3CCN(C(=S)Nc4ccc(C(F)(F)F)cc4)CC3)c(F)cc2c1=O [Compound 10]
Inhibition of topoisomerase IV (E. coli topoisomerase IV): not inhibited and not | Potentiation of hydrogen peroxide (MRSA (USA300 JE2); JE2): did not potentiate | EC50 (MRSA (USA300 JE2); read-out: EC50 Compound + H2O2 (200 µM), MRSA USA300 JE2, H2O2 200 µM): 4100 ± 600 nM | EC50 (E. coli K-12 BW25113): 500 ± 50 nM | Effect on cell number (OD600) in SOS reporter assay ([1]; JE2 recA-GFP reporter with CFX (10 µM)): decrease in cell number at low micromolar concentrations | SOS response (normalized GFP fluorescence/cell) [1]: decreased | SOS response (normalized GFP fluorescence/cell) ([1]; listed as IMP-1700): decreased normalized GFP fluorescence/cell; also recorded: decreased SOS response | Dose-reduction index (DRI) (JE2; JE2, combination with CFX, CompuSyn): 2.8 | Combination index (CI) with CFX (JE2; JE2, constant-ratio combination with CFX, CompuSyn): 0.70 | EC50 (JE2; Staphylococcus aureus, JE2, rate of exponential growth phase over 17 h at 37 °C): 2800 ± 200 nM
